Experimental data: ChEMBL document CHEMBL3301562, “MMV Box screening against Plasmodium falciparum protein kinases and aminoacyl tRNA synthetases”

What was measured:
Assay type in all cases: functional
[1] = biological target: T1, Mitogen-activated protein kinase (Plasmodium falciparum, UniProt Q25917); assay: Final concentrations were 1 uM ATP, 0.5 mM DTT, 1 mM MgCl2, 0.5 mg/mL BSA, and 10 ug/ml MAP2 in a buffer of 50 mM HEPES (pH 7.0). 0.5 mg/mL histone III-S served as the substrate (13); 100 uM AMP-PNP, an ATP analog, was used as a control inhibitor. Incubation time was 4 hours.
T1 sequence (Q25917 whole entry): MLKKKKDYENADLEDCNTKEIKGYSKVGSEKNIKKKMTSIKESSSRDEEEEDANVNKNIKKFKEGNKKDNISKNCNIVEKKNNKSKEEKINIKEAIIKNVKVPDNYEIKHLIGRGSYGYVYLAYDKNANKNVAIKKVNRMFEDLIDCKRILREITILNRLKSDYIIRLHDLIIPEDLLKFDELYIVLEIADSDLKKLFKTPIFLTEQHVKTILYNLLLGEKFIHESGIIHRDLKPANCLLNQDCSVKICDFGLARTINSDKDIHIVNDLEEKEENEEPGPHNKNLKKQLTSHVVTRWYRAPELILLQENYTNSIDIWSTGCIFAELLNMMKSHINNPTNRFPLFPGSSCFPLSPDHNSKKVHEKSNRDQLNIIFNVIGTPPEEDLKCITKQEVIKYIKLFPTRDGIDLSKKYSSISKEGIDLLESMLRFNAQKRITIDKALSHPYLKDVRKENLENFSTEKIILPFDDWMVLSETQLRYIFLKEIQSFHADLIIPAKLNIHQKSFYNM

[2] = biological target: T2, Cdk-related protein kinase 6 (Plasmodium falciparum, UniProt O77239); assay: Final concentrations were 1.5 uM ATP, 5 mM MnCl2, and 15 ug/ml PK6 in a buffer of 100 mM Tris-HCl (pH 7.5). 50 ug/mL MBP was provided as the substrate; 10 uM staurosporine was used as a control inhibitor. Incubation time was 3 hours and 40 minutes.The catalytic activity of each kinase was considered proportional to ATP consumed, as determined from measurements of residual [ATP] with the luciferase-based reagent Kinase-Glo (Promega) following incubation. Luminescence (proportional to residual [ATP]) was measured on the plate readers FLx800 (BioTek Instruments, Winooski, VT, USA) and MicroBeta2.
T2 sequence (O77239 whole entry): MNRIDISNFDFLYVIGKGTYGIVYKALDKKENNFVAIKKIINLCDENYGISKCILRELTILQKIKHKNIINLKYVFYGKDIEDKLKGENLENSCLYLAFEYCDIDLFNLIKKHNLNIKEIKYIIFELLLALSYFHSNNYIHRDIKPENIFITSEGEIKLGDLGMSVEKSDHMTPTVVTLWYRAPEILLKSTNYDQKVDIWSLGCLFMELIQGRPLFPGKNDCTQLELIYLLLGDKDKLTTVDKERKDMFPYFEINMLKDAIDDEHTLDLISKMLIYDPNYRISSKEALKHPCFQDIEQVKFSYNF

Proline--tRNA ligase = biological target: T3, Proline--tRNA ligase (Plasmodium falciparum (isolate 3D7), UniProt Q8I5R7); assay: MMV: ProRS recombinant Plasmodium falciparum Prolyl-tRNA-synthetase, assay with yeast tRNA, ATP, and proline and 3 uM MMV malaria box compound, assay read out with kinase glo as % inhibition.
T3 sequence (Q8I5R7 whole entry): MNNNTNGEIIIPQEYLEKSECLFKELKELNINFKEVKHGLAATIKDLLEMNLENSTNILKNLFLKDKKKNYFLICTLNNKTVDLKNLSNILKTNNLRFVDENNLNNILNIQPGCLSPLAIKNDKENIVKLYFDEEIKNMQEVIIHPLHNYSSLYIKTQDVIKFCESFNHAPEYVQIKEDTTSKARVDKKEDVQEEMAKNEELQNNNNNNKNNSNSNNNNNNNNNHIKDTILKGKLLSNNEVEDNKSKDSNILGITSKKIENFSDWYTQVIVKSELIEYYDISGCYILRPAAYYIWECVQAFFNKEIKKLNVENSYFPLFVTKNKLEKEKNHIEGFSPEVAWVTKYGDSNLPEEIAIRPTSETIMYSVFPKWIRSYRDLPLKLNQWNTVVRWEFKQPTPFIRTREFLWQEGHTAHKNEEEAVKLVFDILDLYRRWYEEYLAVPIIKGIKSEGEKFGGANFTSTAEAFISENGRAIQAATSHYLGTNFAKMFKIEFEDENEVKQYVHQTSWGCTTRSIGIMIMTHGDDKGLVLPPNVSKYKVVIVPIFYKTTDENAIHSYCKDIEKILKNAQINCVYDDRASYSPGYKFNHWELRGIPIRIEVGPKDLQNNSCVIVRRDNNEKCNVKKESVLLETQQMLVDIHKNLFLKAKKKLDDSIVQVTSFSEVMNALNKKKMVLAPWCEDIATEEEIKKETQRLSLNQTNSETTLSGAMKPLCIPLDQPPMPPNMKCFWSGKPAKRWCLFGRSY

Lysine--tRNA ligase = Lysine--tRNA ligase (Plasmodium falciparum (isolate 3D7), UniProt Q8IDJ8); assay: MMV: KRS recombinant Plasmodium falciparum Lysyl-tRNA-synthetase, assay with yeast tRNA, ATP, and lysine and 3 uM MMV malaria box compound, assay read out with kinase glo as % inhibition.
Sequence of Lysine--tRNA ligase (Q8IDJ8 whole entry): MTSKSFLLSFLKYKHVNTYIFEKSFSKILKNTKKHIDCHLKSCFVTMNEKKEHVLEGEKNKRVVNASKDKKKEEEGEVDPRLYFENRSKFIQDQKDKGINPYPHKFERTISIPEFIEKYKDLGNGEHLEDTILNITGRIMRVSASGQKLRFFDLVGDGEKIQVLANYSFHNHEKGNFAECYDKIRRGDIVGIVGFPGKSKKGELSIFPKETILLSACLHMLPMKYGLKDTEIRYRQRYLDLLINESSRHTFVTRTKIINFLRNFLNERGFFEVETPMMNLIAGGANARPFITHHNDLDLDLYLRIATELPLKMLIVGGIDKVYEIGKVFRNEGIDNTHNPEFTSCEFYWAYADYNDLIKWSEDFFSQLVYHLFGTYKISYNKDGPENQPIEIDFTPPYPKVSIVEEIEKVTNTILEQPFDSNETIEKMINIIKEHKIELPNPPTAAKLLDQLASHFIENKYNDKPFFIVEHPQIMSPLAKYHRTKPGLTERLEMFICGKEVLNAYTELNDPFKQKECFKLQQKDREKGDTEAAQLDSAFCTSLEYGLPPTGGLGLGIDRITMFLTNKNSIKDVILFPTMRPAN

[3] = biological target: Calcium-dependent protein kinase 1 (Plasmodium falciparum, UniProt P62344); assay: MMV: CDPK1 Protein kinase inhibition assay using recombinant PfCDPK1, syntide 2 peptide substrate, ATP and KinaseGlo to measure % inhibition at 1 uM MMV box compound.
Sequence of Calcium-dependent protein kinase 1 (P62344 whole entry): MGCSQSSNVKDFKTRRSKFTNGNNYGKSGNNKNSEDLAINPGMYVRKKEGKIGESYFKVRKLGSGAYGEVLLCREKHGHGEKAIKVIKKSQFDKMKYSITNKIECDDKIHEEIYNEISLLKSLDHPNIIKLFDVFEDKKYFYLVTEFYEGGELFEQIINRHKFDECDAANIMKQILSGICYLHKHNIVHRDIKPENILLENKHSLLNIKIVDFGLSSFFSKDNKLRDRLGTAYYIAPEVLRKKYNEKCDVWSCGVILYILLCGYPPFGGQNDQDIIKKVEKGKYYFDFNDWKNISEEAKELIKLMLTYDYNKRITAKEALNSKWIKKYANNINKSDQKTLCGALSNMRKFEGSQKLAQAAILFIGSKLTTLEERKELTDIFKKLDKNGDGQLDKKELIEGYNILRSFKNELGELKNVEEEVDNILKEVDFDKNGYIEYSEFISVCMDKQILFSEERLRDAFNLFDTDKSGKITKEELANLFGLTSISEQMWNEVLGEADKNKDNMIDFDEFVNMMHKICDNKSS

[4] = biological target: T4, Putative uncharacterized protein pk7 (Plasmodium falciparum, UniProt O96214); assay: Final concentrations were 1 uM ATP, 2 mM DTT, 20 mM MgCl2, 2 mM MnCl2, 0.01% BSA, and 6 ug/ml PK7, in a buffer of 20 mM Tris-HCl (pH 7.5). The enzyme itself was the only substrate present (since autophosphorylation occurs); 100 uM 1NA-PP1 was used as a control inhibitor. Incubation time was 3 hours.
T4 sequence (O96214 whole entry): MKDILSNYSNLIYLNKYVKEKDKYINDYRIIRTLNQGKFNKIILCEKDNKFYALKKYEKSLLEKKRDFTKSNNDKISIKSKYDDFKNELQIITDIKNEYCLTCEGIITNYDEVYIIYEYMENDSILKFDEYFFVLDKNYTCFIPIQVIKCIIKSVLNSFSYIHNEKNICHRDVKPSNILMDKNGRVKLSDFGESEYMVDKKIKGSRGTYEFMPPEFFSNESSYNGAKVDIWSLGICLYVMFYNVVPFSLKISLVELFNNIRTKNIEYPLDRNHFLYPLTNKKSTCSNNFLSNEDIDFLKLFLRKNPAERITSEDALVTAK

[5] = biological target: T5, Calcium-dependent protein kinase 4 (Plasmodium falciparum (isolate 3D7), UniProt Q8IBS5); assay: MMV: CDPK4 Protein kinase inhibition assay using recombinant PfCDPK4, syntide2 peptide substrate, ATP and KinaseGlo to measure % inhibition at 1 uM MMV box compound.
T5 sequence (Q8IBS5 whole entry): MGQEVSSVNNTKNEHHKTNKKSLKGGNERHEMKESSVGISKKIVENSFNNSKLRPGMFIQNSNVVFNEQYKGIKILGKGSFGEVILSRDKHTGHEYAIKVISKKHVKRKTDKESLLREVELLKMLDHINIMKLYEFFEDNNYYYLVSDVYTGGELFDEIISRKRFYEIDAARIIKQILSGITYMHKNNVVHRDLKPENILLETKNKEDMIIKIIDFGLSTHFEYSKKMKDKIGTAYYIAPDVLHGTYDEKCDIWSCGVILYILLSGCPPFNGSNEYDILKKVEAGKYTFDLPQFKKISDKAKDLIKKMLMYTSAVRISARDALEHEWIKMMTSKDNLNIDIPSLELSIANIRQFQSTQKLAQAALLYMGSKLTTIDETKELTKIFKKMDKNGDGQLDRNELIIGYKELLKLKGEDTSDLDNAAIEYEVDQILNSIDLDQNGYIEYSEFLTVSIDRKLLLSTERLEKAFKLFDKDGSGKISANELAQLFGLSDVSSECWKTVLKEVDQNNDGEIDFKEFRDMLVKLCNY

Compound | IC50 [1] [µM] | IC50 [2] [µM] | IC50 (Proline--tRNA ligase) [µM] | IC50 (Lysine--tRNA ligase) [µM] | IC50 [3] [µM] | IC50 [4] [µM] | IC50 [5] [µM]
c1ccc(-c2ccc(-c3nc4ccccc4[nH]3)cc2)cc1 | > 1 | > 1 | > 2.5 | > 2.5 | > 1 | > 1 | > 1
CCC(C)NCC(O)(c1ccc(Cl)cc1)c1ccc(Cl)cc1 (configuration not stated) | > 1 | > 1 | > 2.5 | > 2.5 | > 1 | > 1 | > 1
COCCNC(=O)c1ccc(OC2CCN(Cc3ccc(F)c(F)c3)CC2)c(Cl)c1 | > 1 | > 1 | > 2.5 | > 2.5 | > 1 | > 1 | > 1
O=C(CCc1ccco1)NC1CCN(CC2(c3ccc(Cl)cc3)CCC2)CC1 | > 1 | > 1 | > 2.5 | > 2.5 | > 1 | > 1 | > 1
COCCN(C(=O)Cc1cccs1)C(C(=O)NCc1ccc(OC)cc1)c1ccc(C(C)C)cc1 (configuration not stated) | > 1 | > 1 | > 2.5 | > 2.5 | > 1 | > 1 | > 1
FC(F)(F)c1cccc(CNC2CCN(CCc3ccccc3)CC2)c1 | > 1 | > 1 | > 2.5 | > 2.5 | > 1 | > 1 | > 1
Oc1ccc(Cl)cc1CNc1nc2ccccc2[nH]1 | > 1 | > 1 | > 2.5 | > 2.5 | > 1 | > 1 | > 1
O=C(c1ccccc1F)N(Cc1ccc(Cl)cc1)c1ccccn1 | > 1 | > 1 | > 2.5 | > 2.5 | > 1 | > 1 | > 1
O=C(Nc1ccc(Cl)cc1)N1CCN(c2ccc3nncn3n2)CC1 | > 1 | > 1 | > 2.5 | > 2.5 | > 1 | > 1 | > 1
CCCCNCC(O)(c1ccc(Cl)cc1)c1ccc(Cl)cc1 | > 1 | > 1 | > 2.5 | > 2.5 | > 1 | > 1 | > 1
CCn1c(SCC(=O)Nc2cc(C(F)(F)F)ccc2Cl)nc2ccccc2c1=O | > 1 | > 1 | > 2.5 | > 2.5 | > 1 | > 1 | > 1
Cc1ccc(Cn2c(N3CCC(C(=O)NCc4cccs4)CC3)nc3ccccc32)cc1 | > 1 | > 1 | > 2.5 | > 2.5 | > 1 | > 1 | > 1
O=C(Nc1ccc(Cl)cc1C(=O)Nc1ccncc1)c1ccc(Cl)cc1Cl | > 1 | > 1 | > 2.5 | > 2.5 | > 1 | > 1 | > 1
CC(C)(C)CC(C)(C)NCC(O)COc1ccc2c(c1)CCC2 (configuration not stated) | > 1 | > 1 | > 2.5 | > 2.5 | > 1 | > 1 | > 1
CCOc1ccc(/C=C/c2nc(=O)c3ccccc3o2)cc1 | > 1 | > 1 | > 2.5 | > 2.5 | > 1 | > 1 | > 1
CC(O)(c1ccc(Cl)cc1)C(CN1CCCCC1)c1ccccc1 (configuration not stated) | > 1 | > 1 | > 2.5 | > 2.5 | > 1 | > 1 | > 1
CCCCc1ccc(NS(=O)(=O)c2cc3c4c(c2)CCN4C(=O)CC3)cc1 | > 1 | > 1 | > 2.5 | > 2.5 | > 1 | > 1 | > 1
CCOc1ccccc1CNC(=O)C1c2ccccc2C(=O)N(CC(C)C)C1c1cccs1 (configuration not stated) | > 1 | > 1 | > 2.5 | > 2.5 | > 1 | > 1 | > 1
COc1ccc(C2Sc3ccccc3N=C3C2=C(O)c2ccccc23)cc1 (configuration not stated) | > 1 | > 1 | > 2.5 | > 2.5 | > 1 | > 1 | > 1
CCN(CC)CCCNc1nc(-c2ccc(Cl)cc2)nc2ccccc12 | > 1 | > 1 | > 2.5 | > 2.5 | > 1 | > 1 | > 1
CC1CCCCN1CCCNC(=O)c1ccc2c(c1)sc1nc(-c3ccc(F)cc3)cn12 (configuration not stated) | > 1 | > 1 | > 2.5 | > 2.5 | > 1 | > 1 | > 1
